Assay results as given in ChEMBL document CHEMBL4393707, “Synthesis and evaluation of new quinazolin-4(3H)-one derivatives as potent antibacterial agents against multidrug resistant Staphylococcus aureus and Mycobacterium tuberculosis” (Eur J Med Chem, 2019).
In brackets after ≈: the same amount, converted by molar mass.

Assays:
[1] = test system: Staphylococcus aureus; experiment: Antibacterial activity against methicillin-resistant Staphylococcus aureus NR10194 incubated for 16 to 18 hrs by broth microdilution assay; format: functional
[2] = test system: Staphylococcus aureus; experiment: Synergistic antibacterial activity against Staphylococcus aureus ATCC 29213 assessed as FIC incubated for 24 hrs in presence of rifampicin by checkerboard titration assay; format: functional
[3] = test system: Staphylococcus aureus; experiment: Potentiation of rifampicin-induced antibacterial activity against Staphylococcus aureus ATCC 29213 assessed as FIC incubated for 24 hrs by checkerboard titration assay; format: functional
[4] = test system: Staphylococcus aureus; experiment: Potentiation of gentamycin-induced antibacterial activity against Staphylococcus aureus ATCC 29213 assessed as FIC incubated for 24 hrs by checkerboard titration assay; format: functional
[5] = test system: Staphylococcus aureus; experiment: Synergistic antibacterial activity against Staphylococcus aureus ATCC 29213 incubated for 24 hrs in presence of vancomycin by checkerboard titration assay; format: functional; conditions: ATCC 29213, 24 h
[6] = test system: Staphylococcus aureus; experiment: Synergistic antibacterial activity against Staphylococcus aureus ATCC 29213 incubated for 24 hrs in presence of linezolid by checkerboard titration assay; format: functional; conditions: ATCC 29213, 24 h
[7] = test system: Staphylococcus aureus; experiment: Potentiation of daptomycin-induced antibacterial activity against Staphylococcus aureus ATCC 29213 assessed as FIC incubated for 24 hrs by checkerboard titration assay; format: functional
[8] = test system: Staphylococcus aureus; experiment: Synergistic antibacterial activity against Staphylococcus aureus ATCC 29213 incubated for 24 hrs in presence of ceftazidime by checkerboard titration assay; format: functional; conditions: ATCC 29213, 24 h
[9] = test system: Staphylococcus aureus; experiment: Synergistic antibacterial activity against Staphylococcus aureus ATCC 29213 incubated for 24 hrs in presence of meropenem by checkerboard titration assay; format: functional; conditions: ATCC 29213, 24 h
[10] = test system: Staphylococcus aureus; experiment: Potentiation of linezolid-induced antibacterial activity against Staphylococcus aureus ATCC 29213 assessed as FIC incubated for 24 hrs by checkerboard titration assay; format: functional
[11] = test system: Staphylococcus aureus; experiment: Antibacterial activity against methicillin-susceptible Staphylococcus aureus ATCC 29213 incubated for 16 to 18 hrs by broth microdilution assay; format: functional
[12] = test system: Staphylococcus aureus; experiment: Potentiation of minocycline-induced antibacterial activity against Staphylococcus aureus ATCC 29213 assessed as minocycline MIC incubated for 24 hrs by checkerboard titration assay (reference value: 0.125 ug/ml); format: functional; conditions: ATCC 29213, 24 h
[13] = test system: Staphylococcus aureus; experiment: Antibacterial activity against methicillin-resistant Staphylococcus aureus NR10193 incubated for 16 to 18 hrs by broth microdilution assay; format: functional
[14] = test system: Staphylococcus aureus; experiment: Synergistic antibacterial activity against Staphylococcus aureus ATCC 29213 assessed as FIC incubated for 24 hrs in presence of vancomycin by checkerboard titration assay; format: functional
[15] = test system: Staphylococcus aureus; experiment: Antibacterial activity against vancomycin-resistant Staphylococcus aureus VRS4 incubated for 16 to 18 hrs by broth microdilution assay; format: functional
[16] = test system: Staphylococcus aureus; experiment: Potentiation of levofloxacin-induced antibacterial activity against Staphylococcus aureus ATCC 29213 assessed as FIC incubated for 24 hrs by checkerboard titration assay; format: functional
[17] = test system: Staphylococcus aureus; experiment: Antibacterial activity against methicillin-resistant Staphylococcus aureus NR10186 incubated for 16 to 18 hrs by broth microdilution assay; format: functional
[18] = test system: Staphylococcus aureus; experiment: Antibacterial activity against methicillin-resistant Staphylococcus aureus NR119 incubated for 16 to 18 hrs by broth microdilution assay; format: functional
[19] = test system: Staphylococcus aureus; experiment: Synergistic antibacterial activity against Staphylococcus aureus ATCC 29213 assessed as FIC incubated for 24 hrs in presence of meropenem by checkerboard titration assay; format: functional
[20] = test system: Staphylococcus aureus; experiment: Synergistic antibacterial activity against Staphylococcus aureus ATCC 29213 assessed as sum of FIC for test compound in presence of ceftazidime and FIC for ceftazidime in presence of test compound incubated for 24 hrs by checkerboard titration assay; format: functional
[21] = test system: Staphylococcus aureus; experiment: Synergistic antibacterial activity against Staphylococcus aureus ATCC 29213 assessed as FIC incubated for 24 hrs in presence of minocycline by checkerboard titration assay; format: functional
[22] = test system: Staphylococcus aureus; experiment: Synergistic antibacterial activity against Staphylococcus aureus ATCC 29213 incubated for 24 hrs in presence of minocycline by checkerboard titration assay; format: functional; conditions: ATCC 29213, 24 h
[23] = test system: Staphylococcus aureus; experiment: Potentiation of rifampicin-induced antibacterial activity against Staphylococcus aureus ATCC 29213 assessed as rifampicin MIC incubated for 24 hrs by checkerboard titration assay (reference value: […] ug/ml); format: functional; conditions: ATCC 29213, 24 h
[24] = test system: Staphylococcus aureus; experiment: Potentiation of linezolid-induced antibacterial activity against Staphylococcus aureus ATCC 29213 assessed as linezolid MIC incubated for 24 hrs by checkerboard titration assay (reference value: 2 ug/ml); format: functional; conditions: ATCC 29213, 24 h
[25] = test system: Staphylococcus aureus; experiment: Synergistic antibacterial activity against Staphylococcus aureus ATCC 29213 assessed as sum of FIC for test compound in presence of minocycline and FIC for minocycline in presence of test compound incubated for 24 hrs by checkerboard titration assay; format: functional
[26] = test system: Staphylococcus aureus; experiment: Potentiation of vancomycin-induced antibacterial activity against Staphylococcus aureus ATCC 29213 assessed as FIC incubated for 24 hrs by checkerboard titration assay; format: functional
[27] = test system: Staphylococcus aureus; experiment: Antibacterial activity against Staphylococcus aureus ATCC 29213 incubated for 16 to 18 hrs by broth microdilution assay; format: functional
[28] = test system: Staphylococcus aureus; experiment: Synergistic antibacterial activity against Staphylococcus aureus ATCC 29213 assessed as FIC incubated for 24 hrs in presence of daptomycin by checkerboard titration assay; format: functional
[29] = test system: Mycobacterium tuberculosis; experiment: Antitubercular activity against Mycobacterium tuberculosis H37Rv after 7 days by resazurin dye based assay; format: functional; conditions: 168 h
[30] = test system: Acinetobacter baumannii; experiment: Antibacterial activity against Acinetobacter baumannii BAA1605 incubated for 16 to 18 hrs by broth microdilution assay; format: functional
[31] = test system: Staphylococcus aureus; experiment: Synergistic antibacterial activity against Staphylococcus aureus ATCC 29213 assessed as sum of FIC for test compound in presence of meropenem and FIC for meropenem in presence of test compound incubated for 24 hrs by checkerboard titration assay; format: functional
[32] = Selectivity index, ratio of CC50 for African green monkey Vero cells to MIC for Staphylococcus aureus ATCC 29213; format: toxicity; conditions: read-out: Selectivity Index
[33] = test system: Escherichia coli; experiment: Antibacterial activity against Escherichia coli ATCC 25922 incubated for 16 to 18 hrs by broth microdilution assay; format: functional
[34] = test system: Klebsiella pneumoniae; experiment: Antibacterial activity against Klebsiella pneumoniae ATCC BAA-1705 incubated for 16 to 18 hrs by broth microdilution assay; format: functional
[35] = test system: Staphylococcus aureus; experiment: Synergistic antibacterial activity against Staphylococcus aureus ATCC 29213 assessed as FIC incubated for 24 hrs in presence of gentamycin by checkerboard titration assay; format: functional
[36] = test system: Staphylococcus aureus; experiment: Synergistic antibacterial activity against Staphylococcus aureus ATCC 29213 incubated for 24 hrs in presence of gentamycin by checkerboard titration assay; format: functional; conditions: ATCC 29213, 24 h
[37] = test system: Staphylococcus aureus; experiment: Antibacterial activity against methicillin-resistant Staphylococcus aureus NR10129 incubated for 16 to 18 hrs by broth microdilution assay; format: functional
[38] = test system: Staphylococcus aureus; experiment: Potentiation of meropenem-induced antibacterial activity against Staphylococcus aureus ATCC 29213 assessed as meropenem MIC incubated for 24 hrs by checkerboard titration assay (reference value: 0.25 ug/ml); format: functional; conditions: ATCC 29213, 24 h
[39] = test system: Staphylococcus aureus; experiment: Potentiation of ceftazidime-induced antibacterial activity against Staphylococcus aureus ATCC 29213 assessed as ceftazidime MIC incubated for 24 hrs by checkerboard titration assay (reference value: […] ug/ml); format: functional; conditions: ATCC 29213, 24 h
[40] = test system: Staphylococcus aureus; experiment: Potentiation of levofloxacin-induced antibacterial activity against Staphylococcus aureus ATCC 29213 assessed as levofloxacin MIC incubated for 24 hrs by checkerboard titration assay (reference value: 0.25 ug/ml); format: functional; conditions: ATCC 29213, 24 h
[41] = test system: Staphylococcus aureus; experiment: Potentiation of daptomycin-induced antibacterial activity against Staphylococcus aureus ATCC 29213 assessed as daptomycin MIC incubated for 24 hrs by checkerboard titration assay (reference value: 0.5 ug/ml); format: functional; conditions: ATCC 29213, 24 h

For N#Cc1ccc(/C=C/c2nc3cccc(F)c3c(=O)n2-c2cccc(O)c2)cc1, the MIC [1] was 125 to 250 ng/mL (≈ 0.326 to 0.652 µM), the FIC [2] was 0.0625 and the FIC [3] was 0.002. For the same compound, the FIC [4] was 0.0078, the MIC [5] was 7.8 ng/mL and the MIC [6] was 7.8 ng/mL. The FIC [7] was 0.0019, the MIC [8] was 7.8 ng/mL and the MIC [9] was 7.8 ng/mL. For the same compound, the FIC [10] was 0.0037, the MIC [11] was less than 125 ng/mL and the MIC [12] was 0.9 ng/mL. For the same compound, the MIC [13] was less than 125 ng/mL, the FIC [14] was 0.0625 and the MIC [15] was 125 ng/mL (≈ 0.326 µM). For the same compound, the FIC [16] was 0.0036, the MIC [17] was less than 125 ng/mL and the MIC [18] was less than 125 ng/mL. It also gave an FIC [19] of 0.0625, an FIC [20] of 0.0664 and an FIC [21] of 0.0625. The MIC [22] was 7.8 ng/mL, the MIC [23] was 0.03 ng/mL and the MIC [24] was 7.5 ng/mL. It also gave an FIC [25] of 0.0697, an FIC [26] of 0.0039 and an MIC [27] of 62.5 ng/mL (≈ 0.163 µM). The FIC [28] was 0.0625, the MIC [29] was 8000 ng/mL (≈ 20.9 µM) and the MIC [30] was greater than 64000 ng/mL. For the same compound, the FIC [31] was 0.0643, the selectivity ratio [32] was greater than 83.4 and the MIC [33] was greater than 64000 ng/mL. The MIC [34] was greater than 64000 ng/mL, the FIC [35] was 0.0625 and the MIC [36] was 7.8 ng/mL. For the same compound, the MIC [37] was less than 125 ng/mL, the MIC [38] was 0.9 ng/mL and the MIC [39] was 31.2 ng/mL. It also gave an MIC [40] of 0.9 ng/mL and an MIC [41] of 1.9 ng/mL.
With N#Cc1ccc(/C=C/c2nc3ccccc3c(=O)n2-c2ccc(C(=O)O)c(O)c2)cc1 the MIC [1] was less than 125 ng/mL, the FIC [2] was 0.032 and the FIC [3] was 0.002. The FIC [4] was 0.007, the MIC [5] was 1.9 ng/mL and the MIC [6] was 1.9 ng/mL. For the same compound, the FIC [7] was 0.003, the MIC [8] was 1.9 ng/mL and the MIC [9] was 1.9 ng/mL. The FIC [10] was 0.003, the MIC [11] was less than 125 ng/mL and the MIC [12] was 0.9 ng/mL. It also gave an MIC [13] of less than 125 ng/mL, an FIC [14] of 0.032 and an MIC [15] of 125 ng/mL (≈ 0.305 µM). The FIC [16] was 0.003, the MIC [17] was less than 125 ng/mL and the MIC [18] was 125 to 250 ng/mL (≈ 0.305 to 0.611 µM). The FIC [19] was 0.032, the FIC [20] was 0.034 and the FIC [21] was 0.032. The MIC [22] was 1.9 ng/mL, the MIC [23] was 0.03 ng/mL and the MIC [24] was 7.5 ng/mL. It also gave an FIC [25] of 0.039, an FIC [26] of 0.003 and an MIC [27] of 30 ng/mL (≈ 0.0733 µM). The FIC [28] was 0.032, the MIC [29] was 64000 ng/mL (≈ 156 µM) and the MIC [30] was greater than 64000 ng/mL. For the same compound, the FIC [31] was 0.036, the selectivity ratio [32] was greater than 167 and the MIC [33] was greater than 64000 ng/mL. It also gave an MIC [34] greater than 64000 ng/mL, an FIC [35] of 0.032 and an MIC [36] of 1.9 ng/mL. The MIC [37] was less than 125 ng/mL, the MIC [38] was 0.9 ng/mL and the MIC [39] was 31.2 ng/mL. The MIC [40] was 0.9 ng/mL and the MIC [41] was 1.9 ng/mL.
